“And” between values parts separate entries of the source, which are not always exact repeats. Equal values may be shown once. Read-outs that look alike come from different tables or passages of the source. No end group written: not given here.
Legend:
HLA-A*0101 = HLA-A*0101 (Homo sapiens, UniProt P04439, A114D/A174V/A182V/D101N/D185E/E176A/E190D/L180R/Q94H/R68K/S129P/T187R/V100A/V91M/W191G); test: biochemical; assay type: binding
HLA-A*3002 = HLA-A*3002 (Homo sapiens, UniProt P04439, D101N/D140H/D185E/E176R/F33S/G80R/H175R/K168Q/Q94H/R138E/R41S/V100E); test: biochemical; assay type: binding
HLA-A*2902 = HLA-A*2902 (Homo sapiens, UniProt P04439, A270S/D101N/D185E/E176V/E277Q/E87Q/F33T/G231S/H175R/I121M/I218V/I322F/K168Q/L300P/L318F/M331R/P208A/P217A/Q86L/T323A/T345S/V100A/V358M); test: MHC molecular binding / Capture assay, IC50: A*2902; conditions: Binding affinity to A*2902 (expressed as an IC50)
HLA-B*1801 = HLA-B*1801 (Homo sapiens, UniProt P01889, A329T/A93T/A95T/C349S/D201E/D54G/D98Y/E176V/E187T/E204Q/E69T/K202T/Q94N/R155S/R180L/S121R/V306I/Y140S/Y195H/Y33H/Y91S); test: biochemical; assay type: binding
HLA-B*4002 = HLA-B*4002 (Homo sapiens, UniProt P01889, A65T/A93T/A95T/D138N/D201E/D98Y/E176V/E204Q/E69K/K202T/N87E/Q56L/Q94N/R180L/S48T/Y33H/Y91S); test: biochemical; assay type: binding
HLA-B*4402 = HLA-B*4402 (Homo sapiens, UniProt P01889, A223V/A65T/A93T/A95T/D201E/D98Y/E176V/E187L/E204Q/E69K/G107R/H137Y/K202T/L105A/L119I/N104T/N87E/Q56L/Q94N/R106L/R155S/R180D/S101N/S121R/S35A/S48T/T118I/V36M/W191S/Y140D/Y91S); test: biochemical; assay type: binding
HLA-B*4403 = HLA-B*4403 (Homo sapiens, UniProt P01889, A223V/A65T/A93T/A95T/D201E/D98Y/E176V/E187L/E204Q/E69K/G107R/H137Y/K202T/L105A/L119I/N104T/N87E/Q56L/Q94N/R106L/R155S/R180L/S101N/S121R/S35A/S48T/T118I/V36M/W191S/Y140D/Y91S); test: biochemical; assay type: binding
HLA-B*4501 = HLA-B*4501 (Homo sapiens, UniProt P01889, A329T/A65T/A93T/A95T/C349S/D138N/D201E/D98Y/E176V/E187L/E204Q/E69K/H137Y/K202T/L119W/N87E/Q56L/Q94N/R155S/R180D/S121R/S35A/S48T/V127L/V306I/V36M/W191S/Y140L/Y33H/Y91S); test: biochemical; assay type: binding
HLA-B*4001 = HLA-B*4001 (Homo sapiens, UniProt P01889, A65T/A93T/A95T/D138N/D98Y/E176V/E69K/N87E/Q56L/Q94N/R180L/S121R/S35A/S48T/T167S/V36M/W171L/Y33H/Y91S); test: biochemical; assay type: binding
[1] = Binding affinity to A*0101 (expressed as an IC50)

Compound | IC50 (HLA-A*0101; [1]) | IC50 (HLA-B*1801) [nM] | IC50 (HLA-B*4002) [nM] | IC50 (HLA-B*4402) [nM] | IC50 (HLA-B*4403) [nM] | IC50 (HLA-B*4501) [nM] | also measured
CC(C)C[C@H](NC(=O)[C@H](C)N)C(=O)N[C@@H](Cc1ccccc1)C(=O)N[C@@H](CCC(N)=O)C(=O)N[C@@H](CCC(=O)O)C(=O)N[C@@H](Cc1ccc(O)cc1)C(=O)N[C@@H](CCC(N)=O)C(=O)N[C@@H](CS)C(=O)N[C@@H](Cc1ccc(O)cc1)C(=O)O | > 42000 nM |  |  |  |  |  | 
CC[C@H](C)[C@H](NC(=O)[C@@H](NC(=O)[C@H](CC(C)C)NC(=O)[C@H](CC(=O)O)NC(=O)[C@@H](NC(=O)[C@@H](N)Cc1ccccc1)[C@@H](C)O)[C@@H](C)O)C(=O)N[C@H](C(=O)N[C@@H](Cc1ccc(O)cc1)C(=O)O)C(C)C | 16 nM and 34 nM |  |  |  |  |  | IC50 (HLA-A*3002): 39000 nM
C[C@H](NC(=O)[C@H](Cc1c[nH]c2ccccc12)NC(=O)[C@H](Cc1ccc(O)cc1)NC(=O)[C@H](CC(=O)O)NC(=O)[C@H](Cc1ccc(O)cc1)NC(=O)[C@@H](NC(=O)CN)[C@@H](C)O)C(=O)NCC(=O)N[C@@H](Cc1ccc(O)cc1)C(=O)O | 141 nM |  |  |  |  |  | 
CC[C@H](C)[C@H](NC(=O)[C@H](CO)NC(=O)[C@H](Cc1c[nH]cn1)NC(=O)[C@@H](NC(=O)[C@H](CO)NC(=O)[C@@H](N)CC(C)C)C(C)C)C(=O)N[C@@H](CCC(N)=O)C(=O)N[C@@H](CC(N)=O)C(=O)N[C@@H](CC(=O)O)C(=O)N[C@@H](Cc1ccc(O)cc1)C(=O)O | 279 nM |  |  |  |  |  | 
CC(C)C[C@H](NC(=O)[C@H](CC(=O)O)NC(=O)[C@H](CC(C)C)NC(=O)[C@@H](NC(=O)[C@H](Cc1ccc(O)cc1)NC(=O)[C@H](CCC(=O)O)NC(=O)[C@H](CCCCN)NC(=O)[C@H](CC(C)C)NC(=O)[C@@H](NC(=O)[C@@H]1CCCN1)[C@@H](C)O)C(C)C)C(=O)N[C@@H](Cc1ccc(O)cc1)C(=O)O | 426 nM |  |  |  |  |  | IC50 (HLA-A*2902): 805 nM
AADAAAAKY | 20 nM |  |  |  |  |  | 
AEDLWVTVY |  |  |  |  |  |  | IC50 (HLA-B*1801; B*1801): 354 nM; IC50 (HLA-B*4002; B*4002): 3520 nM; IC50 (HLA-B*4402; B*4402): 2330 nM; IC50 (HLA-B*4403; B*4403): 469 nM; IC50 (HLA-B*4501; B*4501): 1840 nM
AEIPKLAYF |  |  |  |  |  |  | IC50 (HLA-B*1801; B*1801): 1640 nM; IC50 (HLA-B*4001; B*4001): 57 nM; IC50 (HLA-B*4002; B*4002): 5.6 nM; IC50 (HLA-B*4402; B*4402): 229 nM; IC50 (HLA-B*4403; B*4403): 57 nM; IC50 (HLA-B*4501; B*4501): 608 nM
AEMGKFKFSY |  |  |  |  |  |  | IC50 (HLA-B*1801; B*1801): 1520 nM; IC50 (HLA-B*4002; B*4002): 622 nM; IC50 (HLA-B*4402; B*4402): 146 nM; IC50 (HLA-B*4403; B*4403): 28 nM; IC50 (HLA-B*4501; B*4501): 283 nM
AENKWVTVY |  | 781 | 534 | 294 | 540 | 297 | IC50 (HLA-B*4001): 11300 nM
AENLNVTVY |  | 198 | 3540 | 447 | 358 | 2440 | IC50 (HLA-B*4001): 564 nM
AENLWVTTY |  | 28 | 191 | 37 | 26 | 48 | IC50 (HLA-B*4001): 280 nM
AENLWVTVC |  | 178000 | 1420 | 5590 | 2270 | 146 | 
AENLWVTVE |  | > 258000 | 1360 | 8910 | 2570 | 246 | IC50 (HLA-B*4001): 3890 nM
AENLWVTVM |  | 508 | 6.1 | 195 | 35 | 50 | IC50 (HLA-B*4001): 13 nM
AENLWVTVP |  | 38400 | 339 | 7720 | 2470 | 187 | IC50 (HLA-B*4001): 9710 nM
AENLWVTVQ |  | 49600 | 85 | 1220 | 188 | 100 | 
AENLWVTVY |  |  |  |  |  |  | IC50 (HLA-B*1801; B*1801): 51 nM and 155 nM and 122 nM; IC50 (HLA-B*4001; B*4001): 1360 nM and 1580 nM; IC50 (HLA-B*4002; B*4002): 90 nM and 547 nM; IC50 (HLA-B*4402; B*4402): 66 nM and 308 nM; IC50 (HLA-B*4403; B*4403): 43 nM and 284 nM; IC50 (HLA-B*4501; B*4501): 68 nM and 200 nM and 301 nM
AENLYVTVF |  |  |  |  |  |  | IC50 (HLA-B*4001; B*4001): 17 nM; IC50 (HLA-B*4002; B*4002): 3.1 nM; IC50 (HLA-B*4402; B*4402): 39 nM; IC50 (HLA-B*4403; B*4403): 47 nM; IC50 (HLA-B*4501; B*4501): 69 nM
AETLWVTVY |  | 199 | 198 | 501 | 221 | 774 | 
ATDNYYIVTY | 7.4 nM and 19 nM |  |  |  |  |  | IC50 (HLA-A*3002): 65 nM
ATELHPEYY | 43 nM |  |  |  |  |  | IC50 (HLA-A*3002): 1730 nM
ATSNYYIVTY | 428 nM |  |  |  |  |  | 
DENLWVTVY |  | 26 | 41100 | 4590 | 988 |  | IC50 (HLA-B*4001): > 72700 nM; IC50 (HLA-B*4501; read-out: B*4501): 49000 nM
DLWYYHTQGYY |  |  |  |  |  |  | IC50 (HLA-A*0101; read-out: Binding affinity to A*0101 (expressed as an IC50)): 5880 nM
EEKPRTLHDL |  |  |  |  |  |  | IC50 (HLA-B*1801; B*1801): > 81600 nM; IC50 (HLA-B*4001; B*4001): 36200 nM; IC50 (HLA-B*4002; B*4002): 34000 nM; IC50 (HLA-B*4402; B*4402): 15200 nM; IC50 (HLA-B*4403; B*4403): 30000 nM; IC50 (HLA-B*4501; B*4501): 419 nM
ETRHYCYSLY | 43 nM |  |  |  |  |  | IC50 (HLA-A*3002): 10 nM
FENLWVTVY |  | 59 | 1340 | 4180 | 1310 | 21400 | IC50 (HLA-B*4001): 943 nM
GEFPYKAAA |  |  |  |  |  |  | IC50 (HLA-B*4001; B*4001): 170 nM; IC50 (HLA-B*4002; B*4002): 3.9 nM; IC50 (HLA-B*4402; B*4402): 746 nM; IC50 (HLA-B*4403; B*4403): 2540 nM; IC50 (HLA-B*4501; B*4501): 11 nM

Reference: patent US20060079453A1, “Hla binding peptides and their uses” (priority 2002, published 2006)
